Reference: US20120244196A1, “PHARMACEUTICAL COMPOSITION CONTAINING MEDICAMENT-CONTAINING FINE PARTICLES AND METHOD FOR PRODUCING SAME” (NITTO DENKO CORPORATION, priority 2009, published 2012)
Where “and” joins values, the source holds several entries; their conditions need not be identical. Equal values may be shown once.

Legend:
[1] = test system: antibody against OVA in the serum; test: mouse immunity experiment, humoral immunity level (ELISA); format: in vivo, mouse (C57BL/6 lineage); conditions: 200 μL intradermal, 62.5 μg/ml egg albumin, 3 injections at one week interval, one week after final injection, N = 2
Protocol: (§1) 200 μL of small particles of Example 10 (egg albumin concentration 62.5 μg/ml, pH 6.5) or egg albumin solution (egg albumin concentration 62.5 μg/ml, pH 6.5) was intradermally injected to the back of mouse (C57BL/6 lineage). Injection at one week interval was repeated twice, totaling 3 injections. One week after final injection, the humoral immunity level and cellular immunity level of the mouse were evaluated. The humoral immunity level was evaluated by measuring the amount of antibody against OVA in the serum based on the absorbance by ELISA method. The cellular immunity level was evaluated by stimulating the isolated spleen cells with OVA peptide, counting the spot number of the ELISPOT method, and measuring the secreted amount of IFN-y.

[2] = test system: isolated spleen cells stimulated with OVA peptide; test: mouse immunity experiment, cellular immunity level (ELISPOT); format: in vivo, mouse (C57BL/6 lineage); conditions: 200 μL intradermal, 62.5 μg/ml egg albumin, 3 injections at one week interval, one week after final injection, N = 2
Protocol: as §1

OVA solution: egg albumin solution (egg albumin concentration 62.5 μg/ml, pH 6.5), control in mouse immunity experiment
humoral immunity level of serum (absorbance at 450 nm by ELISA analysis), average [1]: 0.32
humoral immunity level of serum (absorbance at 450 nm by ELISA analysis), individual mice [1]: 0.23 and 0.40
cellular immunity level of spleen cell (SPOT number of ELISPOT analysis), average [2]: 62
cellular immunity level of spleen cell (SPOT number of ELISPOT analysis), individual mice [2]: 77 and 46
